Assay results published in patent US10519134B2, “Pyrazole compounds and methods of making and using same” (Lundbeck La Jolla Research Center, Inc., priority 2015, dated 2019).

Experiments:
MAGL [1] = biological target: T1, MAGL (Mus musculus, UniProt O35678); assay: Mouse brain proteomes from inhibitor treated mice (oral gavage, sacrificed 4 h after administration); format: in vivo; settings: read-out: MAGL % inh. 5 mg/kg
T1 construct: Proteomes (mouse brain membrane fraction or cell lysates); from tissue; host or cells: mouse brain membrane fraction (or cell lysates)
T1 sequence (O35678 1-303): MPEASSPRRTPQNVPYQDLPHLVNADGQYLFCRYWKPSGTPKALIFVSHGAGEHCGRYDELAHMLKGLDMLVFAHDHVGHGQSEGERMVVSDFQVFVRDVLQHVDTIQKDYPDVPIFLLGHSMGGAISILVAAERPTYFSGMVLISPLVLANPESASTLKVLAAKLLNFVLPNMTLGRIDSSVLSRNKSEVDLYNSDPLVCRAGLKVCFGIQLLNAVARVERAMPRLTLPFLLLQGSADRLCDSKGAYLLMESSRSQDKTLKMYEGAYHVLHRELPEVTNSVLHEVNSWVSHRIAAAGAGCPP
Method: Compounds are tested to assess their MAGL and other serine hydrolase activity using the following in vitro and in vivo assays.
Preparation of Mouse Brain Proteomes from Inhibitor Treated Mice.
Inhibitors were administered to wild-type C57Bl/6J by oral gavage in a vehicle of polyethylene glycol. Each animal was sacrificed 4 h following administration and brain proteomes were prepared and analyzed according to previously established methods (See Niphakis, M. J., et al. (2011) ACS Chem. Neurosci. and Long, J. Z., et al. Nat. Chem. Biol. 5:37-44)

MAGL [2] = biological target: T1, MAGL; assay: In vitro competitive activity-based protein profiling (mouse), MAGL gel band; format: biochemical; settings: for IC50: mouse; for inhibition at 1 µM: read-out: MAGL % inh. 1 μM
In short: (§1)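 Mouse brain membrane proteome or cell lysate (1.0 mg/mL protein) preincubated 30 min at 37 °C with varying inhibitor concentrations, then labelled 30 min at 37 °C with FP-Rh or HT-01 probe (50 μM stock). After SDS-PAGE, activity taken from fluorescent intensity of the MAGL and FAAH gel bands.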

FAAH = biological target: T2, FAAH (Mus musculus, UniProt O08914); assay: In vitro competitive activity-based protein profiling (mouse), FAAH gel band; format: biochemical; settings: for IC50: mouse; for inhibition at 1 µM: read-out: FAAH % inh. 1 μM
T2 construct: Proteomes (mouse brain membrane fraction or cell lysates); from tissue; host or cells: mouse brain membrane fraction (or cell lysates)
T2 sequence (O08914 1-579): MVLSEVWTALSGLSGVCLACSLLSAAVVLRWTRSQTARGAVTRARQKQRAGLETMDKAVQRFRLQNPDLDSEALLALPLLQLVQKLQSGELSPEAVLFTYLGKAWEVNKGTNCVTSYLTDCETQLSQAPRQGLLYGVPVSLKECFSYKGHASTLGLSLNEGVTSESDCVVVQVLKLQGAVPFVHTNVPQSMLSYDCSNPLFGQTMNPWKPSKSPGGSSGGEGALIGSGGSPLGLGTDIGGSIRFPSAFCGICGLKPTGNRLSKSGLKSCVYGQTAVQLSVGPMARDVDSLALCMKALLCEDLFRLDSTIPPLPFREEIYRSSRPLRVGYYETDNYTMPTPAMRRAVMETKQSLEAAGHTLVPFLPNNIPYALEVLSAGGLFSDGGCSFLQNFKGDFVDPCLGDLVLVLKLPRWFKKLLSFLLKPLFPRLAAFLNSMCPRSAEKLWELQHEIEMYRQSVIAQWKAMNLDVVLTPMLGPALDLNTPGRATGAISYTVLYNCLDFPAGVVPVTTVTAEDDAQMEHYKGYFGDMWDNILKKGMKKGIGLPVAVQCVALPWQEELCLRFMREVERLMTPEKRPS
In short: as §1

| Structure (SMILES) | inhibition at 5 mg/kg (MAGL [1]) | IC50 (MAGL [2]) | inhibition at 1 µM (MAGL [2]) | IC50 (FAAH) | inhibition at 1 µM (FAAH) |
| --- | --- | --- | --- | --- | --- |
| CC(=O)Nc1ccn(C(=O)N2CCN(Cc3ccc(C(F)(F)F)cc3N3CCCC3)CC2)n1 [Example 1, N-(1-(4-(2-(pyrrolidin-1-yl)-4-(trifluoromethyl)benzyl)piperazine-1-carbonyl)-1H-pyrazol-3-yl)acetamide] | ≥ 75% | ≤ 100 nM | ≥ 75% | 1000 to 10000 nM | 0 to 25% |
| CC(=O)Nc1ccn(C(=O)N2CCN(Cc3ccc(C(F)(F)F)cc3N3CCOCC3)CC2)n1 [Example 3, N-(1-(4-(2-morpholino-4-(trifluoromethyl)benzyl)piperazine-1-carbonyl)-1H-pyrazol-3-yl)acetamide] | 50 to 75% | ≤ 100 nM | ≥ 75% | 1000 to 10000 nM | 0 to 25% |
| CC(=O)Nc1ccn(C(=O)N2CCN(Cc3ccc(C(F)(F)F)cc3N3CCC(F)CC3)CC2)n1 [Example 4, N-(1-(4-(2-(4-fluoropiperidin-1-yl)-4-(trifluoromethyl)benzyl)piperazine-1-carbonyl)-1H-pyrazol-3-yl)acetamide] | ≥ 75% | ≤ 100 nM | ≥ 75% | 1000 to 10000 nM | 0 to 25% |
| CC(=O)Nc1ccn(C(=O)N2CCN(Cc3ccc(Cl)cc3N3CCCC3)CC2)n1 [Example 5, N-(1-(4-(4-chloro-2-(pyrrolidin-1-yl)benzyl)piperazine-1-carbonyl)-1H-pyrazol-3-yl)acetamide] | ≥ 75% | ≤ 100 nM | ≥ 75% | 1000 to 10000 nM | 0 to 25% |
| CC(=O)Nc1ccn(C(=O)N2CCN(Cc3ccc(Cl)cc3N3CCOCC3)CC2)n1 [Example 6, N-(1-(4-(4-chloro-2-morpholinobenzyl)piperazine-1-carbonyl)-1H-pyrazol-3-yl)acetamide] | 25 to 50% | ≤ 100 nM | ≥ 75% | 1000 to 10000 nM | 0 to 25% |
| CC(=O)Nc1ccn(C(=O)N2CCC3(CCCN3Cc3ccc(Cl)cc3N3CCC4(CCOCC4)C3)CC2)n1 [Example 9, N-(1-(1-(4-chloro-2-(8-oxa-2-azaspiro[4.5]decan-2-yl)benzyl)-1,8-diazaspiro[4.5]decane-8-carbonyl)-1H-pyrazol-3-yl)acetamide] | 0 to 25% | ≤ 100 nM | ≥ 75% | 1000 to 10000 nM | 0 to 25% |
| CC(=O)Nc1ccn(C(=O)N2CCC3(CCCN3Cc3ccc(C(F)(F)F)cc3N3CCOCC3)CC2)n1 [Example 10, N-(1-(1-(2-morpholino-4-(trifluoromethyl)benzyl)-1,8-diazaspiro[4.5]decane-8-carbonyl)-1H-pyrazol-3-yl)acetamide] | 0 to 25% | ≤ 100 nM | ≥ 75% | 1000 to 10000 nM | 0 to 25% |
| CC(=O)Nc1ccn(C(=O)N2CCC3(CCCN3Cc3ccc(C(F)(F)F)cc3N3CCC(F)CC3)CC2)n1 [Example 12, N-(1-(1-(2-(4-fluoropiperidin-1-yl)-4-(trifluoromethyl)benzyl)-1,8-diazaspiro[4.5]decane-8-carbonyl)-1H-pyrazol-3-yl)acetamide] | 0 to 25% | ≤ 100 nM | ≥ 75% | 1000 to 10000 nM | 0 to 25% |
| CC(=O)Nc1ccn(C(=O)N2CCC3(CCCN3Cc3ccc(Cl)cc3N3CCCC3)CC2)n1 [Example 14, N-(1-(1-(4-chloro-2-(pyrrolidin-1-yl)benzyl)-1,8-diazaspiro[4.5]decane-8-carbonyl)-1H-pyrazol-3-yl)acetamide] | 25 to 50% | ≤ 100 nM | ≥ 75% | 1000 to 10000 nM | 0 to 25% |
| CC(=O)Nc1ccn(C(=O)N2CCC3(CCCN3Cc3ccc(Cl)cc3N3CCC(F)CC3)CC2)n1 [Example 18, N-(1-(1-(4-chloro-2-(4-fluoropiperidin-1-yl)benzyl)-1,8-diazaspiro[4.5]decane-8-carbonyl)-1H-pyrazol-3-yl)acetamide] | 0 to 25% | ≤ 100 nM | ≥ 75% | 1000 to 10000 nM | 0 to 25% |
| CC(=O)Nc1ccn(C(=O)N2CCC3(CCCN3Cc3ccc(C(F)(F)F)cc3N3CC4CCC(C3)O4)CC2)n1 [Example 20, N-(1-(1-(2-(8-oxa-3-azabicyclo[3.2.1]octan-3-yl)-4-(trifluoromethyl)benzyl)-1,8-diazaspiro[4.5]decane-8-carbonyl)-1H-pyrazol-3-yl)acetamide] | 0 to 25% | ≤ 100 nM | ≥ 75% | 1000 to 10000 nM | 0 to 25% |
| CC(=O)Nc1ccn(C(=O)N2CCC3(CCCN3Cc3ccc(C(F)(F)F)cc3N3CCC4(CC3)CCN(S(C)(=O)=O)C4)CC2)n1 [Example 26, N-(1-(1-(2-(2-(methylsulfonyl)-2,8-diazaspiro[4.5]decan-8-yl)-4-(trifluoromethyl)benzyl)-1,8-diazaspiro[4.5]decane-8-carbonyl)-1H-pyrazol-3-yl)acetamide] | 0 to 25% | ≤ 100 nM | ≥ 75% | 1000 to 10000 nM | 0 to 25% |

Now from value to compound:

| inhibition at 5 mg/kg (MAGL [1]) | IC50 (MAGL [2]) | inhibition at 1 µM (MAGL [2]) | IC50 (FAAH) | inhibition at 1 µM (FAAH) | Structure (SMILES) |
| --- | --- | --- | --- | --- | --- |
| 0 to 25% | ≤ 100 nM | ≥ 75% | 1000 to 10000 nM | 0 to 25% | CC(=O)Nc1ccn(C(=O)N2CCC3(CCCN3Cc3ccc(C(F)(F)F)cc3N3CCC4(CCOCC4)C3)CC2)n1 [Example 28, N-(1-(1-(2-(8-oxa-2-azaspiro[4.5]decan-2-yl)-4-(trifluoromethyl)benzyl)-1,8-diazaspiro[4.5]decane-8-carbonyl)-1H-pyrazol-3-yl)acetamide] |
| 0 to 25% | ≤ 100 nM | ≥ 75% | 1000 to 10000 nM | 25 to 50% | CC(=O)Nc1ccn(C(=O)N2CCC3(CCCN3Cc3ccc(C(F)(F)F)cc3N3CCC(F)(F)CC3)CC2)n1 [Example 29, N-(1-(1-(2-(4,4-difluoropiperidin-1-yl)-4-(trifluoromethyl)benzyl)-1,8-diazaspiro[4.5]decane-8-carbonyl)-1H-pyrazol-3-yl)acetamide] |
| 25 to 50% | 100 to 1000 nM | ≥ 75% | 1000 to 10000 nM | 0 to 25% | CCN1CCN(c2cc(C(F)(F)F)ccc2CN2CCCC23CCN(C(=O)n2ccc(NC(C)=O)n2)CC3)CC1 [Example 31, N-(1-(1-(2-(4-ethylpiperazin-1-yl)-4-(trifluoromethyl)benzyl)-1,8-diazaspiro[4.5]decane-8-carbonyl)-1H-pyrazol-3-yl)acetamide] |
| 25 to 50% | ≤ 100 nM | ≥ 75% | 1000 to 10000 nM | 0 to 25% | CC(=O)Nc1ccn(C(=O)N2CCC3(CCCN3Cc3ccc(C(F)(F)F)cc3N3CC4COCC4C3)CC2)n1 (centres unmarked) [Example 32, N-(1-(1-(2-(dihydro-1H-furo[3,4-c]pyrrol-5(3H,6H,6aH)-yl)-4-(trifluoromethyl)benzyl)-1,8-diazaspiro[4.5]decane-8-carbonyl)-1H-pyrazol-3-yl)acetamide] |
| 25 to 50% | ≤ 100 nM | ≥ 75% | 1000 to 10000 nM | 0 to 25% | CC(=O)Nc1ccn(C(=O)N2CCC3(CCCN3Cc3ccc(Cl)cc3N3CCCCC3)CC2)n1 [Example 33, N-(1-(1-(4-chloro-2-(piperidin-1-yl)benzyl)-1,8-diazaspiro[4.5]decane-8-carbonyl)-1H-pyrazol-3-yl)acetamide] |
| – | 100 to 1000 nM | ≥ 75% | 1000 to 10000 nM | 0 to 25% | CC(=O)N1CCN(c2cc(CN3CCN(C(=O)n4ccc(NS(C)(=O)=O)n4)CC3)ccc2Cl)CC1 [Example 284, N-(1-(4-(3-(4-acetylpiperazin-1-yl)-4-chlorobenzyl)piperazine-1-carbonyl)-1H-pyrazol-3-yl) methanesulfonamide] |
